Source: US20100120789A1, “Compound” (priority 2005, published 2010)

Compound	melting point [°C]
CN(Cc1ccc(Cl)s1)C(=O)CC12CC3CC(CC(C3)C1)C2	73.5 to 75
CC(C)(C)c1ccc(CS(=O)(=O)CC(=O)C23CC4CC(CC(C4)C2)C3)cc1	127.7
O=C(N1CCc2sccc2C1)C12CC3CC(CC(C3)C1)C2 [STX1721, Adamantan-1-yl-(6,7-dihydro-4H-thieno[3,2-c]pyridin-5-yl)-methanone]	141 to 143
Cc1ccc(CNC(=O)CC23CC4CC(CC(C4)C2)C3)cc1	139 to 142
CNC(=O)c1ccc(CN(C)C(=O)C23CC4CC(CC(C4)C2)C3)s1	211 to 211.5
O=C(N1CCN(Cc2ccc(Cl)cc2)CC1)C12CC3CC(CC(C3)C1)C2	141.5 to 143
O=C(NCc1ccco1)c1ccc(OCC(=O)C23CC4CC(CC(C4)C2)C3)cc1	162.2
COC(=O)c1cccc(OCC(=O)C23CC4CC(CC(C4)C2)C3)c1	84.5
O=C(NCCc1cccs1)[C@@H]1CC2C=CC1C2 (stereo partly drawn) [STX1708, Bicyclo[2.2.1]hept-5-ene-2-carboxylic acid(2-thiophen-2-yl-ethyl)-amide (endo)]	122 to 124
O=C(CC12CC3CC(CC(C3)C1)C2)N1CCN(c2ccc(Cl)cc2)CC1 [STX2404, 2-Adamantan-1-yl-1-[4-(4-chloro-phenyl)-piperazin-1-yl]-ethanone]	112.5 to 115
O=C(CC12CC3CC(CC(C3)C1)C2)NCc1ccc(-c2ccccn2)s1	187 to 188
CN(CCc1cccs1)C(=O)C12CC3CC(CC(C3)C1)C2 [STX1910, Adamantane-1-carboxylic acid methyl-(2-thiophen-2-yl-ethyl)-amide]	95 to 99
O=C(NCCc1cccs1)C12CC3CC(CC1C3)C2 [STX1656, Hexahydro-2,5-methano-pentalene-3a-carboxylic acid(2-thiophen-2-yl-ethyl)-amide]	113 to 114
O=C(CS(=O)(=O)Cc1cccs1)C12CC3CC(CC(C3)C1)C2 [STX2299, 1-Adamantan-1-yl-2-(thiophen-2-ylmethanesulfonyl)-ethanone]	95.5 to 98
CC12CC3CC(C)(C1)CC(C(=O)NCc1cccs1)(C3)C2 [STX1671, 3,5-Dimethyl-adamantane-1-carboxylic acid(thiophen-2-ylmethyl)-amide]	101 to 103
Cc1nc2cc(NCC(=O)C(C)(C)C)ccc2s1 [STX1740, 3,3-Dimethyl-1-(2-methyl-benzothiazol-5-ylamino)-butan-2-one]	108 to 111
CC(=O)Nc1ccc(OCC(=O)C23CC4CC(CC(C4)C2)C3)cc1Cl	204 to 206
Cc1cccc(CN(C)C(=O)C23CC4CC(CC(C4)C2)C3)n1 [STX2134, Adamantane-1-carboxylic acid methyl-(6-methyl-pyridin-2-ylmethyl)-amide]	76 to 77.5
O=C(Nc1ccccc1)c1ccc(OCC(=O)C23CC4CC(CC(C4)C2)C3)cc1	184.3
O=C(N1CCN(c2ccccn2)CC1)C12CC3CC(CC(C3)C1)C2 [STX2065, Adamantan-1-yl-(4-pyridin-2-yl-piperazin-1-yl)-methanone]	137 to 140
O=S(=O)(NC12CC3CC(CC(C3)C1)C2)c1cccs1 [STX1573, Thiophene-2-sulfonic acid adamantan-1-ylamide]	129 to 131
O=C(O)Cc1ccc(OCC(=O)C23CC4CC(CC(C4)C2)C3)cc1 [STX2364, [4-(2-Adamantan-1-yl-2-oxo-ethoxy)-phenyl]-acetic acid]	153.4

Compound	melting point [°C]
Cc1ccc(CNC(=O)C23CC4CC(CC(C4)C2)C3)cc1	137 to 140
CN(Cc1cccs1)C(=O)CS(=O)(=O)C12CC3CC(CC(C3)C1)C2	120 to 122
O=C(NCCc1cccs1)NC12CC3CC(CC(C3)C1)C2 [STX1714, 1-Adamantan-1-yl-3-(2-thiophen-2-yl-ethyl)-urea]	138 to 142
O=C(CC12CC3CC(CC(C3)C1)C2)N1CCc2sccc2C1	121 to 125
COC(=O)Cc1ccc(OCC(=O)C23CC4CC(CC(C4)C2)C3)cc1 [STX2320, [4-(2-Adamantan-1-yl-2-oxo-ethoxy)-phenyl]-acetic acid methyl ester]	71.9
Cc1cccc(CS(=O)(=O)CC(=O)C23CC4CC(CC(C4)C2)C3)c1	132.8
Cc1c(C(=O)CS(=O)(=O)Cc2ccc(Cl)cc2)sc2ccc(Cl)cc12 [STX2296, 1-(5-Chloro-3-methyl-benzo[b]thiophen-2-yl)-2-(4-chloro-phenylmethanesulfonyl)-ethanone]	204.5 to 205.5
Cc1nc2cc(NCC(=O)C3(C)CC3)ccc2s1	116 to 120
O=C(CC12CC3CC(CC(C3)C1)C2)N1CCN(Cc2ccc(Cl)cc2)CC1 [STX2402, 2-Adamantan-1-yl-1-[4-(4-chloro-benzyl)-piperazin-1-yl]-ethanone]	119 to 121
O=C(NCc1ccc(Cl)cc1)C12CC3CC(CC(C3)C1)C2	150 to 153
CC(C(=O)NCc1cccs1)(c1ccccc1)c1ccccc1 [STX1640, 2,2-Diphenyl-N-thiophen-2-ylmethyl-propionamide]	90 to 91
CSc1ccc(CN(C)C(=O)C23CC4CC(CC(C4)C2)C3)s1	73 to 75.5
Cc1nc2c(Cl)c(NC(=O)C34CC5CC(CC(C5)C3)C4)ccc2s1 [STX1373, Adamantane-1-carboxylic acid (4-chloro-2-methyl-benzothiazol-5-yl)-amide]	183.5 to 185.5
Cc1cccc(NC(=O)CS(=O)(=O)C23CC4CC(CC(C4)C2)C3)n1	126 to 129
CN(Cc1ccco1)C(=O)C12CC3CC(CC(C3)C1)C2 [STX2247, Adamantane-1-carboxylic acid furan-2-ylmethyl-methyl-amide]	53.5 to 54.5
CN(Cc1cc(Br)cs1)C(=O)CC12CC3CC(CC(C3)C1)C2 [STX2396, 2-Adamantan-1-yl-N-(4-bromo-thiophen-2-ylmethyl)-N-methyl-acetamide]	86 to 88.5
COc1cc2c(cc1O)CCN(C(=O)C13CC4CC(CC(C4)C1)C3)C2	224 to 228
CN(Cc1cccs1)C(=O)C12CC3CC(CC(O)(C3)C1)C2	88 to 91
O=C(Nc1cccnc1)C12CC3CC(CC(C3)C1)C2 [STX2399, Adamantane-1-carboxylic acid pyridin-3-ylamide]	129 to 131
CN(Cc1cn(C23CC4CC(CC(C4)C2)C3)nn1)Cc1cccs1	66 to 68
O=C(CC12CC3CC(CC(C3)C1)C2)N1CCN(c2ccccn2)CC1	134 to 136
Cn1ccnc1SCC(=O)C12CC3CC(CC(C3)C1)C2 [STX1898, 1-Adamantan-1-yl-2-(1-methyl-1H-imidazol-2-ylsulfanyl)-ethanone]	65 to 69

Compound	melting point [°C]
CC(C)(C)C(=O)NCc1cccs1 [STX1673, 2,2-Dimethyl-N-thiophen-2-ylmethyl-propionamide]	64 to 65
Cc1ccc(CN(C)C(=O)C23CC4CC(CC(C4)C2)C3)s1 [STX2067, Adamantane-1-carboxylic acid methyl-(5-methyl-thiophen-2-ylmethyl)-amide]	83 to 85.5
CN(CCc1ccccn1)C(=O)CC12CC3CC(CC(C3)C1)C2	59 to 60
CC1(C(=O)NCc2cccs2)CCCCC1 [STX1642, 1-Methyl-cyclohexanecarboxylic acid(thiophen-2-ylmethyl)-amide]	72 to 73
O=C(N(Cc1cccs1)CC1CCCCC1)C12CC3CC(CC(C3)C1)C2	112 to 115.5
Cc1ccc(CN(C)C(=O)C23CC4CC(CC(C4)C2)C3)cc1 [STX2003, Adamantane-1-carboxylic acid methyl-(4-methyl-benzyl)-amide]	93 to 95
CN(Cc1ccc(Cl)cc1)C(=O)CC12CC3CC(CC(C3)C1)C2	75 to 76
CN(C)C(=O)c1ccc(CN(C)C(=O)C23CC4CC(CC(C4)C2)C3)s1	145 to 146
Cc1csc(CN(C)C(=O)C23CC4CC(CC(C4)C2)C3)c1 [STX2254, Adamantane-1-carboxylic acid methyl-(4-methyl-thiophen-2-ylmethyl)-amide]	87 to 88
CN(Cc1ccsc1)C(=O)CC12CC3CC(CC(C3)C1)C2 [STX2406, 2-Adamantan-1-yl-N-methyl-N-thiophen-3-ylmethyl-acetamide]	69 to 71
O=C(Cc1ccc(OCC(=O)C23CC4CC(CC(C4)C2)C3)cc1)Nc1ccccc1	153.4
CC(C)(C)CC(=O)NCc1cccs1 [STX1639, 3,3-Dimethyl-N-thiophen-2-ylmethyl-butyramide]	83 to 84
O=C(NC12CC3CC(CC(C3)C1)C2)OCc1cccs1 [STX1711, Adamantan-1-yl-carbamic acid thiophen-2-ylmethyl ester]	66 to 68
CC1(C(=O)NCc2cccs2)CC1 [STX1641, 1-Methyl-cyclopropanecarboxylic acid (thiophen-2-yl methyl)-amide]	70 to 71
CC(C)(C)C(=O)NCCc1cccs1 [STX1674, 2,2-Dimethyl-N-(2-thiophen-2-yl-ethyl)-propionamide]	79 to 80
CN(Cc1cccn1C)C(=O)CC12CC3CC(CC(C3)C1)C2 [STX2407, 2-Adamantan-1-yl-N-methyl-N-(1-methyl-1H-pyrrol-2-ylmethyl)-acetamide]	75 to 76.5
O=C(CC12CC3CC(CC(C3)C1)C2)NCc1ccc(Cl)cc1	166 to 168
CCCc1ccc(S(=O)(=O)NC23CC4CC(CC(C4)C2)C3)cc1 [STX1341, N-Adamantan-1-yl-4-propyl-benzenesulfonamide]	178 to 178.5
O=C(NCc1ccccc1)c1ccc(OCC(=O)C23CC4CC(CC(C4)C2)C3)cc1	145.6
CC(C)N(Cc1cccs1)C(=O)C12CC3CC(CC(C3)C1)C2	156 to 158
CN(CCc1ccccn1)C(=O)C12CC3CC(CC(C3)C1)C2 [STX1887, Adamantane-1-carboxylic acid methyl-(2-pyridin-2-yl-ethyl)-amide]	64 to 65
